Measurements reported in ChEMBL document CHEMBL4257468, “Synthesis and biological evaluation of rapamycin-derived, next generation small molecules” (Medchemcomm, 2018).

Columns and labels:
[1] = target: T1, Peptidyl-prolyl cis-trans isomerase FKBP1A (Homo sapiens, UniProt P62942); experiment: Inhibition of recombinant human FKBP12 expressed in Escherichia coli using succinyl-Ala-Phe-Pro-Phe-4-nitroanilide as substrate measured after 5 to 10 mins by spectrophotometric method
Saccharomyces cerevisiae = experiment: Inhibition of FKBP12 in yeast assessed as reduction in cell proliferation
[2] = Apparent terminal half life in Sprague-Dawley rat at 2.5 mg/kg, iv administered as bolus dose by mass spectrometric analysis; type: ADME, organism-based; conditions: in vivo, read-out: betat1/2(app) (converted)
[3] = target: T1, Peptidyl-prolyl cis-trans isomerase FKBP1A; experiment: Inhibition of [3H]-FK506 binding to recombinant human His6-tagged FKBP12 pretreated for 10 mins followed by [3H]-FK506 addition and measured after 1.5 hrs by microbeta scintillation counting method
[4] = Half life in human administered as oral dose; type: ADME, organism-based; conditions: in vivo

T1 sequence (P62942 whole entry): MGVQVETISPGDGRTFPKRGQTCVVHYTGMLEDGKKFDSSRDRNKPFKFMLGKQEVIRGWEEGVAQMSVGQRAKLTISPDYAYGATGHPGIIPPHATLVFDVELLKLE

SMILES | Ki [1] | IC12 (Saccharomyces cerevisiae) | half-life [2] | IC50 [3] | half-life [4]
CO[C@@H]1C[C@H](C[C@@H](C)[C@@H]2CC(=O)[C@H](C)/C=C(\C)[C@@H](O)[C@@H](OC)C(=O)[C@H](C)C[C@H](C)/C=C/C=C/C=C(\C)[C@@H](OCc3ccccc3)C[C@@H]3CC[C@@H](C)[C@@](O)(O3)C(=O)C(=O)N3CCCC[C@H]3C(=O)O2)CC[C@H]1O | 5 nM | 6 nM |  |  | 
COC(=O)N[C@H]1C[C@@H]2CC[C@@H](C)[C@@](O)(O2)C(=O)C(=O)N2CCCC[C@H]2C(=O)O[C@H]([C@H](C)C[C@@H]2CC[C@@H](O)[C@H](OC)C2)CC(=O)[C@H](C)/C=C(\C)[C@@H](O)[C@@H](OC)C(=O)[C@H](C)C[C@H](C)/C=C/C=C/C=C/1C | 4.5 nM | 170 nM |  |  | 
CO[C@H]1C[C@@H]2CC[C@@H](C)[C@@](O)(O2)C(=O)C(=O)N2CCCC[C@H]2C(=O)O[C@H]([C@H](C)C[C@@H]2CC[C@H](n3cnnn3)[C@H](OC)C2)CC(=O)[C@H](C)/C=C(\C)[C@@H](O)[C@@H](OC)C(=O)[C@H](C)C[C@H](C)/C=C/C=C/C=C/1C [ZOTAROLIMUS] |  |  | 9.4 h |  | 
COc1ccc([C@@H]2C[C@@H]3CC[C@@H](C)[C@@](O)(O3)C(=O)C(=O)N3CCCC[C@H]3C(=O)O[C@H]([C@H](C)C[C@@H]3CC[C@@H](O)[C@H](OC)C3)CC(=O)[C@H](C)/C=C(\C)[C@@H](O)[C@@H](OC)C(=O)[C@H](C)C[C@H](C)/C=C/C=C/C=C/2C)c(OC)c1 | 38 nM | 400 nM |  |  | 
CO[C@@H]1C[C@H](C[C@@H](C)[C@@H]2CC(=O)[C@H](C)/C=C(\C)[C@@H](O)[C@@H](OC)C(=O)[C@H](C)C[C@H](C)/C=C/C=C/C=C(\C)C(=O)C[C@@H]3CC[C@@H](C)[C@@](O)(O3)C(=O)C(=O)N3CCCC[C@H]3C(=O)O2)CC[C@H]1O | 29 nM | 210 nM |  |  | 
COc1cc(OC)c([C@@H]2C[C@@H]3CC[C@@H](C)[C@@](O)(O3)C(=O)C(=O)N3CCCC[C@H]3C(=O)O[C@H]([C@H](C)C[C@@H]3CC[C@@H](O)[C@H](OC)C3)CC(=O)[C@H](C)/C=C(\C)[C@@H](O)[C@@H](OC)C(=O)[C@H](C)C[C@H](C)/C=C/C=C/C=C/2C)c(OC)c1 | 7 nM | > 1000 nM |  |  | 
CO[C@@H]1C[C@H](C[C@@H](C)[C@@H]2CC(=O)[C@H](C)/C=C(\C)[C@@H](O)[C@@H](OC)C(=O)[C@H](C)C[C@H](C)/C=C/C=C/C=C(\C)[C@H](SC)C[C@@H]3CC[C@@H](C)[C@@](O)(O3)C(=O)C(=O)N3CCCC[C@H]3C(=O)O2)CC[C@H]1O |  | 4 nM |  |  | 
CCO[C@H]1C[C@@H]2CC[C@@H](C)[C@@](O)(O2)C(=O)C(=O)N2CCCC[C@H]2C(=O)O[C@H]([C@H](C)C[C@@H]2CC[C@@H](O)[C@H](OC)C2)CC(=O)[C@H](C)/C=C(\C)[C@@H](O)[C@@H](OC)C(=O)[C@H](C)C[C@H](C)/C=C/C=C/C=C/1C | 3.5 nM | 10 nM |  |  | 
CO[C@@H]1C[C@H](C[C@@H](C)[C@@H]2CC(=O)[C@H](C)/C=C(\C)[C@@H](O)[C@@H](OC)C(=O)[C@H](C)C[C@H](C)/C=C/C=C/C=C(\C)[C@@H](OCc3cccc([N+](=O)[O-])c3)C[C@@H]3CC[C@@H](C)[C@@](O)(O3)C(=O)C(=O)N3CCCC[C@H]3C(=O)O2)CC[C@H]1O | 7 nM | 20 nM |  |  | 
CO[C@H]1C[C@@H]2CC[C@@H](C)[C@@](O)(O2)C(=O)C(=O)N2CCSC[C@H]2C(=O)O[C@H]([C@H](C)C[C@@H]2CC[C@@H](O)[C@H](OC)C2)CC(=O)[C@H](C)/C=C(\C)[C@@H](O)[C@@H](OC)C(=O)[C@H](C)C[C@H](C)/C=C/C=C/C=C/1C |  |  |  | 53.6 nM | 
CO[C@@H]1C[C@H](C[C@@H](C)[C@@H]2CC(=O)[C@H](C)/C=C(\C)[C@@H](O)[C@@H](OC)C(=O)[C@H](C)C[C@H](C)/C=C/C=C/C=C(\C)CC[C@@H]3CC[C@@H](C)[C@@](O)(O3)C(=O)C(=O)N3CCCC[C@H]3C(=O)O2)CC[C@H]1O |  | 8 nM |  |  | 
CO[C@@H]1C[C@H](C[C@@H](C)[C@@H]2CC(=O)[C@H](C)/C=C(\C)[C@@H](O)[C@@H](OC)C(=O)[C@H](C)C[C@H](C)/C=C/C=C/C=C(\C)[C@@H](OCc3ccc(Cl)cc3)C[C@@H]3CC[C@@H](C)[C@@](O)(O3)C(=O)C(=O)N3CCCC[C@H]3C(=O)O2)CC[C@H]1O | 1 nM | 6 nM |  |  | 
COC(=O)N[C@@H]1C[C@@H]2CC[C@@H](C)[C@@](O)(O2)C(=O)C(=O)N2CCCC[C@H]2C(=O)O[C@H]([C@H](C)C[C@@H]2CC[C@@H](O)[C@H](OC)C2)CC(=O)[C@H](C)/C=C(\C)[C@@H](O)[C@@H](OC)C(=O)[C@H](C)C[C@H](C)/C=C/C=C/C=C/1C | 3.7 nM | 220 nM |  |  | 
COc1ccc([C@H]2C[C@@H]3CC[C@@H](C)[C@@](O)(O3)C(=O)C(=O)N3CCCC[C@H]3C(=O)O[C@H]([C@H](C)C[C@@H]3CC[C@@H](O)[C@H](OC)C3)CC(=O)[C@H](C)/C=C(\C)[C@@H](O)[C@@H](OC)C(=O)[C@H](C)C[C@H](C)/C=C/C=C/C=C/2C)c(OC)c1 | 9 nM | 225 nM |  |  | 

Now from value to molecule:

Ki [1] | IC12 (Saccharomyces cerevisiae) | half-life [2] | IC50 [3] | half-life [4] | SMILES
6 nM | 3 nM |  |  |  | CO[C@@H]1C[C@H](C[C@@H](C)[C@@H]2CC(=O)[C@H](C)/C=C(\C)[C@@H](O)[C@@H](OC)C(=O)[C@H](C)C[C@H](C)/C=C/C=C/C=C(\C)[C@H](c3ccco3)C[C@@H]3CC[C@@H](C)[C@@](O)(O3)C(=O)C(=O)N3CCCC[C@H]3C(=O)O2)CC[C@H]1O
 | 20 nM |  |  |  | CO[C@@H]1C[C@@H]2CC[C@@H](C)[C@@](O)(O2)C(=O)C(=O)N2CCCC[C@H]2C(=O)O[C@H]([C@H](C)C[C@@H]2CC[C@@H](O)[C@H](OC)C2)CC(=O)[C@H](C)/C=C(\C)[C@@H](O)[C@@H](OC)C(=O)[C@H](C)C[C@H](C)/C=C/C=C/C=C/1C
3 nM | 12.5 nM |  |  |  | CO[C@@H]1C[C@H](C[C@@H](C)[C@@H]2CC(=O)[C@H](C)/C=C(\C)[C@@H](O)[C@@H](OC)C(=O)[C@H](C)C[C@H](C)/C=C/C=C/C=C(\C)[C@@H](c3ccco3)C[C@@H]3CC[C@@H](C)[C@@](O)(O3)C(=O)C(=O)N3CCCC[C@H]3C(=O)O2)CC[C@H]1O
 | 4 nM |  |  |  | CO[C@@H]1C[C@H](C[C@@H](C)[C@@H]2CC(=O)[C@H](C)/C=C(\C)[C@@H](O)[C@@H](OC)C(=O)[C@H](C)C[C@H](C)/C=C/C=C/C=C(\C)[C@@H](SC)C[C@@H]3CC[C@@H](C)[C@@](O)(O3)C(=O)C(=O)N3CCCC[C@H]3C(=O)O2)CC[C@H]1O
1.5 nM | 28 nM |  |  |  | CO[C@@H]1C[C@H](C[C@@H](C)[C@@H]2CC(=O)[C@H](C)/C=C(\C)[C@@H](O)[C@@H](OC)C(=O)[C@H](C)C[C@H](C)/C=C/C=C/C=C(\C)[C@H](c3ccc[nH]3)C[C@@H]3CC[C@@H](C)[C@@](O)(O3)C(=O)C(=O)N3CCCC[C@H]3C(=O)O2)CC[C@H]1O
 | 7 nM | 14 h |  | 62 to 82 h | CO[C@H]1C[C@@H]2CC[C@@H](C)[C@@](O)(O2)C(=O)C(=O)N2CCCC[C@H]2C(=O)O[C@H]([C@H](C)C[C@@H]2CC[C@@H](O)[C@H](OC)C2)CC(=O)[C@H](C)/C=C(\C)[C@@H](O)[C@@H](OC)C(=O)[C@H](C)C[C@H](C)/C=C/C=C/C=C/1C [SIROLIMUS]
10 nM | 28 nM |  |  |  | CO[C@@H]1C[C@H](C[C@@H](C)[C@@H]2CC(=O)[C@H](C)/C=C(\C)[C@@H](O)[C@@H](OC)C(=O)[C@H](C)C[C@H](C)/C=C/C=C/C=C(\C)[C@@H](c3ccc[nH]3)C[C@@H]3CC[C@@H](C)[C@@](O)(O3)C(=O)C(=O)N3CCCC[C@H]3C(=O)O2)CC[C@H]1O
